Data from patent publication US11578100B2, “Cyclic peptides, cyclic peptide conjugates and methods of use thereof” (Florida Atlantic University Board of Trustees, priority 2018, dated 2023).
Where a SMILES comes first, the peptide text is derived from it. Bridges are numbered along the chain shown (N, C = ends). Where no end group is shown, it is not given here. [ ]: non-standard residue; d: D form. Trp(5-OH) = N[C@@H](Cc1c[nH]c2ccc(O)cc12)C(=O)O; Tic = O=C(O)[C@@H]1Cc2ccccc2CN1

Key:
mice [1] = experiment: 55° C. warm water tail-withdrawal test; type: in vivo, mouse; details: i.n. administration
δ opioid receptor (DOR) = target: T1, δ opioid receptor (DOR) (Homo sapiens, UniProt P41143); experiment: opioid receptor protein binding radioassay, DOR
T1 construct: expressed in transfected cells; host or cells: CHO cells

μ opioid receptor (MOR) = target: T2, μ opioid receptor (MOR) (Homo sapiens, UniProt P35372); experiment: opioid receptor protein binding radioassay, MOR
T2 construct: expressed in transfected cells; host or cells: CHO cells

κ opioid receptor (KOR) = target: T3, κ opioid receptor (KOR) (Homo sapiens, UniProt P41145); experiment: opioid receptor protein binding radioassay, KOR
T3 construct: expressed in transfected cells; host or cells: CHO cells

[2] = stability in 100% mouse brain homogenate; type: in vitro ADME; details: 37° C., RP-HPLC and MALDI TOF MS
Procedure: Peptides Stability Under Physiologically Relevant Conditions and Mode of Action Stability of DADLE-OL in 100% human cerebrospinal fluid and 100% mouse brain homogenate at 37° C. was determined. The disappearance of the intact peptides and formation of proteolytic products was monitored by RP-HPLC and MALDI TOF mass spectrometry. […] Once diffused into the brain, DOR active sequence is released due to proteolytic hydrolysis of DADLE-OL. Fragment 1 was synthesized, and activities of the parent DADLE-OL and fragment 1 were tested in the cAMP inhibition assay (cAMP AlphaScreen™ Assay, Perkin Elmer).

mice [3] = experiment: observation of adverse effects after i.n. administration
[4] = peptide level in mouse brain after i.n. or i.p. administration (LC-MS/MS)
mice [5] = experiment: rotarod test of motor coordination; details: peptides i.n.; U50,488 i.p.
[6] = 30 min after intranasal delivery
Excerpt: Anatomical and physiological studies identified the midbrain periaqueductal gray (PAG) and its descending projections to the rostral ventromedial medulla (RVM) and spinal cord dorsal horn, as a primary anatomical pathway mediating opioid-based analgesia.

mice [7] = experiment: conditioned place preference / aversion; details: mouse, in vivo
DOR = target: T4, DOR (Mus musculus, UniProt P32300); experiment: antagonism of i.c.v. SNC-80 after i.n. pretreatment; type: in vivo; details: SNC-80 i.c.v.
T4 construct: from tissue; host or cells: living mouse (CNS); SNC-80 i.c.v. after i.n. TIPP-OL
T4 sequence (P32300 whole entry): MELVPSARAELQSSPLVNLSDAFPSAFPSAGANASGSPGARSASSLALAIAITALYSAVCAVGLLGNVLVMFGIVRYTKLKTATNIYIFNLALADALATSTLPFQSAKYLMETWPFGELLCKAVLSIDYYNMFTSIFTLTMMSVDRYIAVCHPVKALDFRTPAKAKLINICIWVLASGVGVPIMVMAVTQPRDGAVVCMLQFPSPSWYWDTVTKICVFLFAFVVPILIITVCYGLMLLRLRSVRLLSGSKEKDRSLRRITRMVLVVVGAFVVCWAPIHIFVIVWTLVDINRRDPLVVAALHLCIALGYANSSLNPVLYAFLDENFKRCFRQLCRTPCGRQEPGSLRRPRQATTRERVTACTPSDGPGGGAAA

T1 sequence (P41143 whole entry): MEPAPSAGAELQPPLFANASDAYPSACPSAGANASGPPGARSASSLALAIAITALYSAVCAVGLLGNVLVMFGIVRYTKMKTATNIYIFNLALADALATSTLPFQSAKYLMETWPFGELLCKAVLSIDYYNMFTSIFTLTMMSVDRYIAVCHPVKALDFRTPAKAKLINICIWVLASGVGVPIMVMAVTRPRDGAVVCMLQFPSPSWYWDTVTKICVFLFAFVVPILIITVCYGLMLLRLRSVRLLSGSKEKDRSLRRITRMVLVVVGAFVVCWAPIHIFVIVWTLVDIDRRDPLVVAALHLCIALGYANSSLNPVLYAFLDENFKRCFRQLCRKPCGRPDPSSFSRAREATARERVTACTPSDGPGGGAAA
T2 sequence (P35372 whole entry): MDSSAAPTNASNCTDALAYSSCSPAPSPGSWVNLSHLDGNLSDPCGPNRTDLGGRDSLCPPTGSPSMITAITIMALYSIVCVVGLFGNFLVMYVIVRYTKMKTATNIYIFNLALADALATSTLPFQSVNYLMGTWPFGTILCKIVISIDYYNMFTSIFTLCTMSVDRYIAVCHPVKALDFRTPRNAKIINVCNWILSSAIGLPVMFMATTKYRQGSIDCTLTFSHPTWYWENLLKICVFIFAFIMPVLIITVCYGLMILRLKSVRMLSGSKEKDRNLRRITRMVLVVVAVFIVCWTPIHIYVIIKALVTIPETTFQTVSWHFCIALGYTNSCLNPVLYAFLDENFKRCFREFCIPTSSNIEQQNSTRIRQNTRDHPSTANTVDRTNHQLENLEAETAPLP
T3 sequence (P41145 whole entry): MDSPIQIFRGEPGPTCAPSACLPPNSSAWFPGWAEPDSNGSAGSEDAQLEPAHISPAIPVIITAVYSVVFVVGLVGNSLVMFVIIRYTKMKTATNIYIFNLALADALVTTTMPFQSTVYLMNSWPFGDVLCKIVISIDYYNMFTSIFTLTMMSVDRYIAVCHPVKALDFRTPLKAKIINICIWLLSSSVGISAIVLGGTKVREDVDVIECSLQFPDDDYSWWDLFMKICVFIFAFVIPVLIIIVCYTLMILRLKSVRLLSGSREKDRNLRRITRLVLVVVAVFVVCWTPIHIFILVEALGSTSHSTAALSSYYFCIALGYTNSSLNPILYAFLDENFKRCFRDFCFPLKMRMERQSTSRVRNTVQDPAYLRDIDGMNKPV

## CC(C)C[C@@H](NC(=O)[C@H](Cc1ccccc1)NC(=O)CNC(=O)[C@@H](C)NC(=O)[C@@H](N)Cc1ccc(O)cc1)C(=O)O [DADLE, [D-Ala^2, D-Leu^5] enkephalin, reference compound]
Mice [1]
  antinociception in tail-withdrawal test: did not themselves produce antinociception

## CC(C)C[C@@H]1NC(=O)[C@H](C(C)C)NC(=O)CNC(=O)[C@H](CC(N)=O)NC(=O)[C@@H]2CCCN2C(=O)[C@H](Cc2ccc(O)cc2)NC(=O)[C@H](CCCNC(=N)N)NC(=O)[C@H](Cc2ccccc2)NC(=O)[C@@H](NC(=O)[C@H](CCCCN)NC(=O)[C@@H]2CCCN2C(=O)[C@H](CO)NC(=O)[C@H](C)NC(=O)[C@@H](N)Cc2ccc(O)cc2)CSSC[C@@H](C(=O)N[C@H](C(N)=O)[C@@H](C)O)NC(=O)[C@H](C)NC1=O [OL, Y^1A^2S^3P^4K^5-cyclo[C^6F^7R^8Y^9P^10N^11G^12V^13L^14A^15C^16]T^17, reference compound] (H-YASPKCFRYPNGVLACT-NH2; disulfide 6-16; N-terminus and C-terminus assumed)
δ opioid receptor (DOR)
  Kd opioid receptor δ: n.o.
μ opioid receptor (MOR)
  Kd opioid receptor μ: n.o.
κ opioid receptor (KOR)
  Kd opioid receptor K: n.o.
[2]
  stability in 100% mouse brain homogenate: proteolytic cleavage of the N-terminal Tyr^1 and Ala^2
Mice [3]
  adverse effects: no adverse effects were observed
[4]; 30 minutes after i.n. (30 μg, 6 μL/nostril)
  detection in mouse brain after i.n. administration: can be detected in the mouse brain
[4]; after i.n. administration
  time to elimination from the brain: about 240 minutes

## CC(C)C[C@@H]1NC(=O)[C@H](CCCCN)NC(=O)[C@@H]2CCCN2C(=O)[C@H](Cc2c[nH]c3ccccc23)NC(=O)[C@H](Cc2ccccc2)NC(=O)CNC(=O)[C@H](CCCNC(=N)N)NC(=O)[C@H](Cc2ccccc2)NC(=O)[C@@H](NC(=O)[C@H](CCCCN)NC(=O)[C@@H]2CCCN2C(=O)[C@H](CO)NC(=O)[C@H](C)NC(=O)[C@@H](N)Cc2ccc(O)cc2)CSSC[C@@H](C(=O)N[C@H](C(N)=O)[C@@H](C)O)NC(=O)[C@H](C)NC1=O [OLKOR-L1, Y^1A^2S^3P^4K^5-cyclo[C^6F^7R^8G^9F^10W^11P^12K^13L^14A^15C^16]T^17] (H-YASPKCFRGFWPKLACT-NH2; disulfide 6-16)
Mice [5]
  motor coordination in rotarod test: no impairment in motor coordination in mice was observed
Mice [3]
  adverse effects: no other adverse effects were observed

## CC(C)C[C@@H]1NC(=O)[C@H](CCCCN)NC(=O)[C@@H]2CCCN2C(=O)[C@H](Cc2c[nH]c3ccccc23)NC(=O)[C@H](Cc2ccccc2)NC(=O)CNC(=O)[C@H](CCCNC(=N)N)NC(=O)[C@H](Cc2ccccc2)NC(=O)[C@@H](NC(=O)[C@H](CCCCN)NC(=O)[C@@H]2CCCN2C(=O)[C@H](CO)NC(=O)[C@H](C)NC(=O)[C@@H](N)Cc2c[nH]c3ccc(O)cc23)CSSC[C@@H](C(=O)N[C@H](C(N)=O)[C@@H](C)O)NC(=O)[C@H](C)NC1=O [OLKOR-L1-5HTrp, 5-HTrp^1-A^2S^3P^4K^5-cyclo[C^6F^7R^8G^9F^10W^11P^12K^13L^14A^15C^16]T^17] (H-[Trp(5-OH)]ASPKCFRGFWPKLACT-NH2; disulfide 6-16)
[6]
  5-HTrp accumulation in the midbrain: significant increase in 5-HTrp accumulation in the midbrain
Mice [7]
  conditioned place aversion (CPA): produced CPA
  conditioned place preference (reward): do not produce reward

## CC(C)C[C@@H]1NC(=O)[C@H](CC(N)=O)NC(=O)[C@H](C(C)C)NC(=O)[C@@H]2CCCN2C(=O)[C@H](Cc2ccccc2)NC(=O)[C@H](Cc2c[nH]cn2)NC(=O)[C@H](CCCNC(=N)N)NC(=O)[C@H](Cc2ccccc2)NC(=O)[C@@H](NC(=O)[C@H](CCCCN)NC(=O)[C@@H]2CCCN2C(=O)[C@H](CO)NC(=O)[C@H](C)NC(=O)[C@@H](N)Cc2ccc(O)cc2)CSSC[C@@H](C(=O)N[C@H](C(N)=O)[C@@H](C)O)NC(=O)[C@H](C)NC1=O [OLMOR-L1, Y^1A^2S^3P^4K^5-cyclo[C^6F^7R^8H^9F^10P^11V^12N^13L^14A^15C^16]T^17] (H-YASPKCFRHFPVNLACT-NH2; disulfide 6-16)
Mice [5]
  motor coordination in rotarod test: did not affect motor coordination and balance
Mice [7]
  conditioned place aversion (CPA): did not induce significant conditioned place preference or aversion
  conditioned place preference (reward): did not induce significant conditioned place preference or aversion

## Y^1A^2S^3P^4K^5-cyclo[C^6F^7R^8Y^9Tic^10F^11F^12V^13L^14A^15C^16]T^17 (YASPKCFRY[Tic]FFVLACT; disulfide 6-16 (inferred)) [TIPP-OL]
DOR
  antagonism of the effect of SNC-80: fully antagonizes the effect of a potent DOR agonist SNC-80

## Y^1P^2W^3F^4K^5-cyclo[C^6F^7R^8Y^9Tic^10F^11F^12V^13L^14A^15C^16]T^17 (YPWFKCFRY[Tic]FFVLACT; disulfide 6-16 (inferred)) [TIPP-EM1-OL]
Mice [1]
  antinociception in tail-withdrawal test: exhibits antinociceptive effects
